Test results: patent US8637679B2, “Process for the isolation of organic compounds useful for the treatment of cancer” (Council of Scientific and Industrial Research, priority 2011, dated 2014)
Several values for one entry are separate records, joined by “and”; a condition that tells them apart may be missing. Equal entries are not always repeated. Entries after “also recorded” stand apart in the source; their conditions may differ. Where two headings read alike, the source gives them in different places. Blank lines part the entries; values can stand above or below the molecule they belong to.

What was measured:
HeLa [1] = experiment: 7-AAD flow cytometric apoptosis, HeLa; type: cell-based, human
Method: (§5) U87MG, LN229, HeLa, SiHa and ME180 (1×10^6 cells) cells were cultured in 6-well plates in presence or absence of Mahanine (25 μM) for 24 hrs. Cells were washed in PBS, incubated with 7-Aminoactinomycin D (7-AAD) at 4° C. for 20 min and processed. Data acquisition was done on a FACSCalibur flow cytometer (BD) at excitation wavelength at 488 nm and emission wavelength at 647 nm and analyzed with CellQuestPro software.

ME180 = experiment: 7-AAD flow cytometric apoptosis, ME180; type: cell-based, human; conditions: ME180, paclitaxel 10 μM alone
Method: as §5

Hsp90α = Hsp90α (Homo sapiens, UniProt P07900); experiment: γ-ATP sepharose binding assay, Hsp90α; conditions: mahanine at 50 and 100 μM
Method: (§1) 5 μg of purified Hsp90α and Hsp90β were pre-incubated separately on ice with 200 μL incubation buffer (10 mM Tris-Hcl, 50 mM KCl, 5 mM MgCl2, 2 mM DTT, 20 mM Na2MoO4, 0.01% NP40, pH 7.5) containing mahanine or 17-AAG and incubated for 30 mins on ice. After the incubation, 25 μL pre-equilibrated γ-phosphate ATP sepharose added and again incubated at 37° C. with frequent agitation.
(§2) Sepharose subsequently washed and analyzed by SDS-PAGE. Then the blot was probed with anti Hsp90 antibody and developed by ECL.

Hsp90β = Hsp90β (Homo sapiens, UniProt P08238); experiment: γ-ATP sepharose binding assay, Hsp90β; conditions: mahanine at 50 and 100 μM
Hsp90β, sequence (P08238 whole entry): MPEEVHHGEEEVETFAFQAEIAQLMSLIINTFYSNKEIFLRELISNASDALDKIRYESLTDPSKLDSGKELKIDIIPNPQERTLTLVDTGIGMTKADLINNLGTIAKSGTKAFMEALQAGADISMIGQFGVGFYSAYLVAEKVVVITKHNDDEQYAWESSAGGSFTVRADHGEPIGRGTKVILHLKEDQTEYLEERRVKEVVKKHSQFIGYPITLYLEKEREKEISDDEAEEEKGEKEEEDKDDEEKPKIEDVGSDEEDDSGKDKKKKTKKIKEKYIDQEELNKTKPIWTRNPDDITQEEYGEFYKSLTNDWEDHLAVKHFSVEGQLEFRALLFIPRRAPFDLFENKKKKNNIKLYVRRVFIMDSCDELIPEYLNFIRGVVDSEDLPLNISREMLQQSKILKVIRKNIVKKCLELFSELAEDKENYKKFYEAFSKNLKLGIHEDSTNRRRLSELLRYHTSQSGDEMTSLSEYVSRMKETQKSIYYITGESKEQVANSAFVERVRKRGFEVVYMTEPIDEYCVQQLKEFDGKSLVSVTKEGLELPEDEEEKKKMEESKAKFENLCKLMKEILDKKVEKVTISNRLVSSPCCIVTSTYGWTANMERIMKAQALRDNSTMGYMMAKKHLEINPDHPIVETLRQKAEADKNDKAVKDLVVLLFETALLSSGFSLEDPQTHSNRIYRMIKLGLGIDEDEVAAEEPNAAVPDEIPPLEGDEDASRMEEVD
Method: as §1, §2

Molt-3 = experiment: MTT cell viability assay, Molt-3; type: cell-based, human; conditions: Molt-3, 48 hrs
Method: (§3) Human cervical cancer cell lines (HeLa, ME-180 and SiHa), brain tumor cell lines (U87MG, U373MG, U87MG EGFRvIII, T98G, A172 and LN229), lymphoid leukemia (MOLT-3, MOLT-4, REH and CEMC-7), myloid leukemia (K562), pancreatic cancer (MIAPaCa-2, AsPC-1, Panc-1 and Panc 10.05), lung cancer (A549) and colon cancer (HCT116 and SW480) cell lines from American Type Culture Collection, Manassas, Va., USA were grown in IMDM or RPMI (cell specific) Medium supplemented with 10% fetal bovine serum and 1% antibiotic-antimycotic. Cells were cultured in 37° C. in an atmosphere of 5% CO2.
(§4) Viability of cancer cell lines after treatment as at the indicated times was determined by MTT assay. Briefly, 10,000 cells were plated in triplicate in 96 well plates and incubated for 24 and 48 hours in complete media in presence of varying dose of mahanine (0-50 μM). 100 ug MTT was added in each well. Incubate the plate for 1-4 hours at 37° C. and humidified 5% CO2 atmosphere. Absorbance was recorded at 550 nm with 96 well plate readers.

Molt-4 = experiment: MTT cell viability assay, Molt-4; type: cell-based, human; conditions: Molt-4, 48 hrs
Method: as §3, §4

CEM C7 = experiment: MTT cell viability assay, CEM C7; type: cell-based, human; conditions: CEM C7, 48 hrs
Method: as §3, §4

REH = experiment: MTT cell viability assay, REH; type: cell-based, human; conditions: 48 hrs
Method: as §3, §4

K562 = experiment: MTT cell viability assay, K562; type: cell-based, human; conditions: K562, 48 hrs
Method: as §3, §4

U373MG = experiment: MTT cell viability assay, U373MG; type: cell-based, human; conditions: 48 hrs
Method: as §3, §4

U87MG = experiment: MTT cell viability assay, U87MG; type: cell-based, human; conditions: 48 hrs
Method: as §3, §4

LN229 = experiment: MTT cell viability assay, LN229; type: cell-based, human; conditions: LN229, 48 hrs
Method: as §3, §4

T98G = experiment: MTT cell viability assay, T98G; type: cell-based, human; conditions: 48 hrs
Method: as §3, §4

A172 = experiment: MTT cell viability assay, A172; type: cell-based, human; conditions: A172, 48 hrs
Method: as §3, §4

MIAPaCa-2 = experiment: MTT cell viability assay, MIAPaCa-2; type: cell-based, human; conditions: MIAPaCa-2, 48 hrs
Method: as §3, §4

AsPC1 = experiment: MTT cell viability assay, AsPC1; type: cell-based, human; conditions: AsPC1, 48 hrs
Method: as §3, §4

Panc1 = experiment: MTT cell viability assay, Panc1; type: cell-based, human; conditions: Panc1, 48 hrs
Method: as §3, §4

Panc10.05 = experiment: MTT cell viability assay, Panc10.05; type: cell-based, human; conditions: Panc10.05, 48 hrs
Method: as §3, §4

A549 = experiment: MTT cell viability assay, A549; type: cell-based, human; conditions: A549, 48 hrs
Method: as §3, §4

NCIH23 = experiment: MTT cell viability assay, NCIH23; type: cell-based, human; conditions: NCIH23, 48 hrs
Method: as §4

HCT116 = experiment: MTT cell viability assay, HCT116; type: cell-based, human; conditions: HCT116, 48 hrs
Method: as §3, §4

SW480 = experiment: MTT cell viability assay, SW480; type: cell-based, human; conditions: SW480, 48 hrs
Method: as §3, §4

HeLa [2] = experiment: MTT cell viability assay, HeLa; type: cell-based, human; conditions: 48 hrs
Method: as §3, §4

Vero = experiment: MTT cell viability assay, Vero normal cells; type: cell-based, African monkey; conditions: Vero normal cell line, 48 hrs
[3] = test system: glioma cells (U87MG, U373MG, LN229, A172 and T98G); experiment: MTT assay, panel of glioma cell lines; type: cell-based, human; conditions: range over U87MG, 48 hr, read-out: IC50 values against different glioma cell lines
Method: as §3, §4

cancer cell lines = experiment: MTT assay, pooled cancer cell lines of several cancer types; type: cell-based, human; conditions: 48 hr
Method: as §3, §4

[4] = In vivo bioavailability after oral feeding; design: species or system Balb/c mice; conditions: mouse, in vivo, po
Method: EtOAc extract of Murraya koenigii was orally feeded to normal healthy Balb/c (100 mg/kg body weight) and blood was collected from retro orbital plexus after 30 min interval by glass capillary. Control blood was collected from the mice before the […] of extract. The Institutional Animal Ethical Committee had approved the study. Blood serum was isolated and the serum protein was separated by centrifugation in ice-cold acetone. Supernatant was evaporated to dryness and residual part was dissolved in minimum volume of MeOH and injected into the HPLC column.

[5] = test system: glioma (T98G) and cervical (HeLa) cancer cells; experiment: Comparative cytotoxicity of mahanine and analogs by MTT; type: cell-based, human; conditions: MTT
Method: as §3, §4

Molecule: N.N.[Cl][Pt][Cl] [Cisplatin, cisplatin]
apoptosis (7-AAD) (HeLa [1]; cisplatin 40 μM alone): ~7%

Molecule: CC(=O)O[C@H]1C(=O)[C@@]2(C)[C@H]([C@H](OC(=O)c3ccccc3)[C@]3(O)C[C@H](OC(=O)[C@H](O)[C@@H](NC(=O)c4ccccc4)c4ccccc4)C(C)=C1C3(C)C)[C@]1(OC(C)=O)CO[C@@H]1C[C@@H]2O [Paclitaxel, paclitaxel, reference compound]
apoptosis (7-AAD) (HeLa [1]; paclitaxel 10 μM alone): 16.19%
apoptosis (7-AAD) (ME180): 18.21%

effect on ATP binding to purified Hsp90 (Hsp90α): easily hindered the ATP binding
effect on ATP binding to purified Hsp90 (Hsp90β): easily hindered the ATP binding
Molecule: 17-allylamino, 17-demethoxygeldanamycin [17AAG, reference compound]

IC50 (Molt-3): 22.6 ± 0.6 µM
IC50 (Molt-4): 28 ± 0.2 µM
IC50 (K562): 25.1 ± 0.1 µM
IC50 (U87MG): 42.6 ± 0.4 µM
IC50 (MIAPaCa-2): 35.2 ± 0.1 µM
IC50 (AsPC1): 31.75 ± 0.2 µM
IC50 (Panc1): 32.8 ± 0.1 µM
IC50 (Panc10.05): 38.2 ± 0.1 µM
IC50 (A549): 37 ± 0.1 µM
IC50 (HCT116): 33.5 ± 0.3 µM
IC50 (SW480): 36.4 ± 0.5 µM
IC50 (HeLa [2]): 34.8 ± 0.1 µM
IC50 (HeLa [2]; listed as Mahanimbin): 36 µM
IC50 [3]: 38 to 47 µM
IC50 (cancer cell lines; range over glioma and cervical cancer cell lines, read-out: IC50, glioma and cervical cancer cells): 10 to 20 µM
IC50 (cancer cell lines; range over leukemia, glioma, cervical, pancreatic, colon and lung cancer lines, MTT, read-out: IC50, cell lines of different cancer types): 20 to 45 µM and 30 to 50 µM
secondary metabolites in blood (mass spectroscopy) [4]: no production of secondary metabolites
time to appearance in blood circulation after oral administration [4]: ≤ 30 min
Molecule: CC(C)=CCCC1(C)C=Cc2c(c(C)cc3c2[nH]c2ccccc23)O1 (stereo not shown) [Mahanimbine, mahanimbine]
IC50 (CEM C7): 27.4 ± 0.3 µM
IC50 (REH): 24.3 ± 0.7 µM
IC50 (U373MG): 41.2 ± 0.25 µM
IC50 (LN229): 46.3 ± 0.1 µM
IC50 (T98G): 43.6 ± 0.2 µM
IC50 (A172): 38.4 ± 0.8 µM
IC50 (NCIH23): 31.8 ± 0.2 µM
IC50 (Vero): > 100 µM

Molecule: CC(C)=CCCC1(C)C=Cc2c(c(C)cc3c4ccccc4n(C)c23)O1 (stereo not shown) [N-methylated mahanimbine]
cytotoxicity (activity in words) [5]: inactive; also recorded: more or less inactive

Molecule: C20-C21 epoxy mahanine
IC50 (REH): 18.4 ± 1.1 µM

Molecule: COc1ccc2c(c1)[nH]c1c3c(c(C)cc12)OC(C)(CCC=C(C)C)C=C3 (stereo not shown) [O-methylated mahanine]
cytotoxicity (activity in words) [5]: inactive; also recorded: more or less inactive
